Assay [1] concerns SAM in HCT116 human colon carcinoma cell line engineered to delete the MTAP gene (MTAP −/−). The assay can be described thus: Cellular assay of target engagement (SAM) by LC-MS/MS. Conditions: Homo sapiens, HCT-116, 72 h, IC50 score, read-out: Cell 72 h SAM Inhibition (MTAP −/−; Example 276). The assay is classed as cell-based. An outline of the steps: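 Intracellular SAM, the MAT2A product, was measured by quantitative LC-MS/MS against a d3-SAM standard in methanol/acetic acid extracts. Extracts came from HCT116 MTAP −/− cells exposed for 72 h at 37 °C to a ten-point, threefold dilution series of compound, added one day after seeding.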

Assay [2] has as its system HCT116 MTAP+/+. The assay can be described thus: Inhibition of cellular proliferation (Cell Titer Glo), HCT116 MTAP+/+. In kind it is cell-based, human. As to conditions: Homo sapiens, HCT-116, 96 h, 4 days, IC50 score, read-out: 4 Day Relative Growth Inhibition (MTAP +/+; Example 277). An outline of the steps:
(§1)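 Proliferation was read as ATP luminescence (Cell Titer Glo) after a 4-day, 37 °C exposure of HCT116 cells differing only in MTAP deletion status. Dosing was 10 points, 3-fold steps, added 24 h post-plating; signal minus blank, relative to 0.2% DMSO control wells, was plotted against log molar concentration.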

Assay [3] addresses T1, MAT2A homodimer (Homo sapiens, UniProt P31153).
T1 construct: inferred from Ni sepharose purification and imidazole elution; made in house; host or cells: Sf9 insect cells, recombinant baculovirus (Bac to Bac, pFASTBAC1)
Nature of the assay: Biochemical assay: inhibition of MAT2A (phosphate release, PiColorLock Gold). Conditions: MAT2A IC50 score; read-out: Enzyme Inhibition (Example 275). Put shortly:
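Phosphate formed alongside SAM was read with PiColorLock Gold and quantified against a potassium phosphate standard curve. Reactions ran 60 min at 25 °C after adding a substrate mix of 500 μM ATP and 400 μM L-methionine (mix concentrations). Compound had first been preincubated 60 min with recombinant Sf9-derived MAT2A homodimer ([…]) in pH 8.0 Tris buffer containing MgCl2, KCl, EDTA and BSA.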

In assay [4] the test system is HCT116 MTAP−/−. Nature of the assay: Inhibition of cellular proliferation (Cell Titer Glo), HCT116 MTAP−/−. Conditions: Homo sapiens, HCT-116, 96 h, 4 days, IC50 score, read-out: 4 Day Relative Growth Inhibition (MTAP −/−; Example 277). In kind it is cell-based, human. An outline of the steps: as §1
(In ATP-based viability assays light output follows the ATP content of the culture.)

The source of these data is patent US11524960B2, “Heterobicyclic inhibitors of MAT2A and methods of use for treating cancer” (AGIOS PHARMACEUTICALS, INC., priority 2018, dated 2022).

Each structure is given as a SMILES string.

T1 sequence (P31153 whole entry): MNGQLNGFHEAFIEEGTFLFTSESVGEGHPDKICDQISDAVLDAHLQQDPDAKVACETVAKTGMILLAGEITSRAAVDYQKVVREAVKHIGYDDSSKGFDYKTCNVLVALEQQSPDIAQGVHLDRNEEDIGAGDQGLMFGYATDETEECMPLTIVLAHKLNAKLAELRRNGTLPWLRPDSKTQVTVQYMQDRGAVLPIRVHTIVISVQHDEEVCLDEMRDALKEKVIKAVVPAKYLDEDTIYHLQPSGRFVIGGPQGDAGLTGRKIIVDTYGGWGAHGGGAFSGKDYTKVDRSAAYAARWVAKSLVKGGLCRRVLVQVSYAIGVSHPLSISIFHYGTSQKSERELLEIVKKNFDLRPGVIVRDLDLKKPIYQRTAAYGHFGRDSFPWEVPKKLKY

On to `COc1ccc(-n2cc3cnc(NCC(F)(F)F)nc3c(-c3ccc(Br)cc3)c2=O)cc1` [Example 192, 8-(4-bromophenyl)-6-(4-methoxyphenyl)-2-((2,2,2-trifluoroethyl)amino)pyrido[4,3-d]pyrimidin-7(6H)-one], for which the IC50 in assay [1] is under 100 nM; in assay [2] it was over 10000 nM; in assay [3], under 100 nM; in assay [4] it was 100 to 10000 nM.
Regarding `O=c1c(-c2ccc(OC(F)F)cc2)c2nc(NCC(F)(F)F)ncc2cn1-c1ccc2nccn2c1` [Example 157, 8-(4-(difluoromethoxy)phenyl)-6-(imidazo[1,2-a]pyridin-6-yl)-2-((2,2,2-trifluoroethyl)amino)pyrido[4,3-d]pyrimidin-7(6)-one], the IC50 was under 100 nM in assay [1], over 10000 nM in assay [2], under 100 nM in assay [3] and 100 to 10000 nM in assay [4].
Turning to `O=c1c(-c2ccc(OC(F)F)cc2)c2nc(NCC(F)(F)F)ncc2cn1-c1ccc2ncsc2c1` [Example 156, 6-(benzo[d]thiazol-6-yl)-8-(4-(difluoromethoxy)phenyl)-2-((2,2,2-trifluoroethyl)amino)pyrido[4,3-d]pyrimidin-7(6H)-one], the IC50 in assay [1] is under 100 nM; in assay [2], over 10000 nM; in assay [3], under 100 nM; in assay [4] it was under 100 nM.
Turning to `Cc1nc2ccc(-n3cc4cnc(NCC(F)(F)F)nc4c(-c4ccc(OC(F)F)cc4)c3=O)cc2s1` [Example 150, 8-(4-(difluoromethoxy)phenyl)-6-(2-methylbenzo[d]thiazol-6-yl)-2-((2,2,2-trifluoroethyl)amino)pyrido[4,3-d]pyrimidin-7(6H)-one], the IC50 in assay [1] is under 100 nM; in assay [2], 100 to 10000 nM; in assay [3], under 100 nM; in assay [4], 100 to 10000 nM.
Turning to `CCOc1cnc2cn(-c3ccc4nn(C)cc4c3)c(=O)c(-c3ccc(OC(F)F)nc3)c2n1` [Example 149-A], the IC50 in assay [1] was under 100 nM; in assay [2], 100 to 10000 nM; in assay [3], under 100 nM; in assay [4], 100 to 10000 nM.
`O=c1c(-c2ccc(OC(F)F)cc2)c2nc(NC3CCC3)ncc2cn1-c1ccc2ncccc2c1` [Example 183, 2-(cyclobutylamino)-8-(4-(difluoromethoxy)phenyl)-6-(quinolin-6-yl)pyrido[4,3-d]pyrimidin-7(6)-one]: the IC50 in assay [1] was 100 to 1000 nM; in assay [2], over 10000 nM; in assay [3], under 100 nM; in assay [4], 100 to 10000 nM.
For `Cc1c2cc(-n3cc4cnc(NCC(F)(F)F)nc4c(-c4ccc(OC(F)F)cc4)c3=O)ccc2nn1C` [Example 158, 8-(4-(difluoromethoxy)phenyl)-6-(2,3-dimethyl-2H-indazol-5-yl)-2-((2,2,2-trifluoroethyl)amino)pyrido[4,3-d]pyrimidin-7(6H)-one], in that order: under 100 nM, over 10000 nM, under 100 nM and under 100 nM.
For `Cn1cnc2ccc(-n3cc4ccc(OCC(F)(F)F)nc4c(-c4ccc(Cl)cc4)c3=O)cc21` [Example 255, 8-(4-chlorophenyl)-6-(1-methyl-1H-benzo[d]imidazol-6-yl)-2-(2,2,2-trifluoroethoxy)-1,6-naphthyridin-7(6H)-one], in that order: under 100 nM, over 10000 nM, under 100 nM and under 100 nM.
Turning to `COc1ccc(-c2c(=O)n(-c3ccc4nn(C)cc4c3)cc3ncc(OCC(F)F)nc23)cc1` [Example 141-A], the IC50 in assay [1] is under 100 nM; in assay [2] it was 100 to 10000 nM; in assay [3] it was under 100 nM; in assay [4], under 100 nM.
Turning to `CCOc1ccc2cn(-c3ccc4nn(C)cc4c3)c(=O)c(-c3ccc(-c4c[nH]cn4)cc3)c2n1` [Example 224, 8-(4-(1H-imidazol-4-yl)phenyl)-2-ethoxy-6-(2-methyl-2H-indazol-5-yl)-1,6-naphthyridin-7(6H)-one], the IC50 in assay [1] was 100 to 1000 nM; in assay [2], over 10000 nM; in assay [3] it was under 100 nM; in assay [4] it was over 10000 nM.
On to `CCOc1ccc2cn(-c3ccc4ncn(C)c4c3)c(=O)c(-c3ccc(NC)nc3)c2n1` [Example 111-A], for which the IC50 in assay [1] is under 100 nM; in assay [2], 100 to 10000 nM; in assay [3], under 100 nM; in assay [4] it was under 100 nM.
On to `CCOc1ccc2cn(-c3ccc4nn(C)cc4c3)c(=O)c(-c3ccc(-c4cc[nH]n4)cc3)c2n1` [Example 223, 8-(4-(1H-pyrazol-3-yl)phenyl)-2-ethoxy-6-(2-methyl-2H-indazol-5-yl)-1,6-naphthyridin-7(6H)-one], for which the IC50 in assay [1] was 100 to 1000 nM; in assay [2] it was over 10000 nM; in assay [3], under 100 nM; in assay [4] it was 100 to 10000 nM.
Consider `CCOc1cnc2cn(-c3ccc4nn(C)cc4c3)c(=O)c(-c3ccc(OC(F)F)cc3)c2n1` [Example 145-A], for which the IC50 in assay [1] is under 100 nM; in assay [2], 100 to 10000 nM; in assay [3], under 100 nM; in assay [4] it was under 100 nM.
Turning to `CCOc1ccc2cn(-c3ccc4nn(C)cc4c3)c(=O)c(-c3ccc(C(F)(F)F)cc3)c2n1` [Example 215, 2-ethoxy-6-(2-methyl-2H-indazol-5-yl)-8-(4-(trifluoromethyl)phenyl)-1,6-naphthyridin-7(6H)-one], the IC50 was under 100 nM in assay [1], 100 to 10000 nM in assay [2], under 100 nM in assay [3] and under 100 nM in assay [4].
As to `Cn1cc2cc(-n3cc4ccc(NCC(F)(F)F)nc4c(-c4ccc(Cl)cc4)c3=O)ccc2n1` [Example 236, 8-(4-chlorophenyl)-6-(2-methyl-2H-indazol-5-yl)-2-(2,2,2-trifluoroethylamino)-1,6-naphthyridin-7(6H)-one], the IC50 in assay [1] was under 100 nM; in assay [2] it was over 10000 nM; in assay [3], under 100 nM; in assay [4], under 100 nM.
In the case of `Cn1cc2cc(-n3cc4ncc(OCC(F)F)nc4c(-c4ccc(OC(F)F)nc4)c3=O)ccc2n1` [Example 144-A], the IC50 in assay [1] was under 100 nM; in assay [2], 100 to 10000 nM; in assay [3], under 100 nM; in assay [4], 100 to 10000 nM.
As to `O=c1c(-c2ccc(C3CC3)cc2)c2nc(NCC(F)(F)F)ncc2cn1-c1ccc2ncsc2c1` [Example 166, 6-(benzo[d]thiazol-6-yl)-8-(4-cyclopropylphenyl)-2-((2,2,2-trifluoroethyl)amino)pyrido[4,3-d]pyrimidin-7(6)-one], the IC50 is under 100 nM in assay [1], over 10000 nM in assay [2], under 100 nM in assay [3] and under 100 nM in assay [4].
For `Cn1cc2cc(-n3cc4ccc(OCC5CC5)nc4c(-c4ccc(Cl)cc4)c3=O)ccc2n1` [Example 233, 8-(4-chlorophenyl)-2-(cyclopropylmethoxy)-6-(2-methyl-2H-indazol-5-yl)-1,6-naphthyridin-7(6H)-one], the IC50 in assay [1] was under 100 nM; in assay [2] it was over 10000 nM; in assay [3] it was under 100 nM; in assay [4] it was under 100 nM.
As to `Cn1cc2cc(-n3cc4ccc(NC5CC5)nc4c(-c4ccc(OC(F)F)cc4)c3=O)ccc2n1` [Example 242, 2-(cyclopropylamino)-8-(4-(difluoromethoxy)phenyl)-6-(2-methyl-2H-indazol-5-yl)-1,6-naphthyridin-7(6H)-one], the IC50 is under 100 nM in assay [1], over 10000 nM in assay [2], under 100 nM in assay [3] and under 100 nM in assay [4].
On to `Cn1cc2cc(-n3cc4cnc(OCC(F)(F)F)nc4c(-c4ccc(OC(F)F)cc4)c3=O)ccc2n1` [Example 265, 8-(4-(difluoromethoxy)phenyl)-6-(2-methyl-2H-indazol-5-yl)-2-(2,2,2-trifluoroethoxy)pyrido[4,3-d]pyrimidin-7(6H)-one], for which the IC50 in assay [1] is under 100 nM; in assay [2], over 10000 nM; in assay [3], under 100 nM; in assay [4] it was under 100 nM.
As to `CCn1cnc2ccc(-n3cc4cnc(NCC(F)(F)F)nc4c(-c4ccc(Cl)cc4)c3=O)cc21` [Example 141, 8-(4-chlorophenyl)-6-(1-ethyl-1H-benzo[d]imidazol-6-yl)-2-((2,2,2-trifluoroethyl)amino)pyrido[4,3-d]pyrimidin-7(6H)-one], the IC50 is under 100 nM in assay [1], over 10000 nM in assay [2], under 100 nM in assay [3] and under 100 nM in assay [4].
In the case of `O=c1c(-c2ccc(Cl)cc2)c2nc(NCC(F)(F)F)ncc2cn1-c1ccc2ncccc2c1` [Example 139, 8-(4-chlorophenyl)-6-(quinolin-6-yl)-2-((2,2,2-trifluoroethyl)amino)pyrido[4,3-d]pyrimidin-7(6)-one], the IC50 was under 100 nM in assay [1], over 10000 nM in assay [2], under 100 nM in assay [3] and 100 to 10000 nM in assay [4].
